{"source": "PubChem BioAssay AID2060888", "about": "(Molecular Pharmacology Branch, DTP, NCI, 2025);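 further: viability read after seven days of drug exposure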;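 on viability, T/C: 100% = DMSO vehicle control viability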", "test_system": "695427-040-R-J1-PDC complex spheroid viability", "experiment": "Anticancer human tumor 695427-040-R-J1-PDC patient-derived colon adenocarcinoma cell line growth inhibition [RAS]", "conditions": "for IC50: curve of first compound; for viability, T/C: stronger effect = lower value", "in_short": "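Tumour cells grown as complex spheroids with HUVEC endothelial cells and mesenchymal stem cells, treated with RAS pathway inhibitor combinations. Each agent spans half-log steps from near clinical Cmax, or 10 microM where Cmax is unknown.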", "data": [{"smiles": "NC1c2ccccc2OC12CCN(c1cnc3c(N4CCCc5ncccc54)n[nH]c3n1)CC2", "note": "(configuration not stated) + C#Cc1c(F)ccc2cc(O)cc(-c3ncc4c(N5CC6CCC(C5)N6)nc(OCC56CCCN5CC(F)C6)nc4c3F)c12", "values": [{"measurement": "IC50", "setting": "second compound 0.0316 µM", "result": 1180, "unit": "nM"}, {"measurement": "IC50", "setting": "second compound 0.1 µM", "result": 583, "unit": "nM"}, {"measurement": "IC50", "setting": "second compound 0.316 µM", "result": 141, "unit": "nM"}, {"measurement": "IC50", "setting": "second compound 1 µM", "result": 50.8, "unit": "nM"}, {"measurement": "IC50", "setting": "second compound 3.16 µM", "result": "< 31.6", "unit": "nM"}, {"measurement": "IC50", "setting": "second compound 10 µM", "result": "< 31.6", "unit": "nM"}, {"measurement": "viability, T/C", "setting": "second compound 0.0316 µM, first compound 0.0316 µM", "result": 69.6, "unit": "%"}, {"measurement": "viability, T/C", "setting": "second compound 0.0316 µM, first compound 0.1 µM", "result": 65.6, "unit": "%"}, {"measurement": "viability, T/C", "setting": "second compound 0.0316 µM, first compound 0.316 µM", "result": 57.4, "unit": "%"}, {"measurement": "viability, T/C", "setting": "second compound 0.0316 µM, first compound 1 µM", "result": 50, "unit": "%"}, {"measurement": "viability, T/C", "setting": "second compound 0.0316 µM, first compound 3.16 µM", "result": 45.2, "unit": "%"}, {"measurement": "viability, T/C", "setting": "second compound 0.0316 µM, first compound 10 µM", "result": 33.6, "unit": "%"}, {"measurement": "viability, T/C", "setting": "second compound 0.1 µM, first compound 0.0316 µM", "result": 69, "unit": "%"}, {"measurement": "viability, T/C", "setting": "second compound 0.1 µM, first compound 0.1 µM", "result": 61.8, "unit": "%"}, {"measurement": "viability, T/C", "setting": "second compound 0.1 µM, first compound 0.316 µM", "result": 55.9, "unit": "%"}, {"measurement": "viability, T/C", "setting": "second compound 0.1 µM, first compound 1 µM", "result": 45.1, "unit": "%"}, {"measurement": "viability, T/C", "setting": "second compound 0.1 µM, first compound 3.16 µM", "result": 34.9, "unit": "%"}, {"measurement": "viability, T/C", "setting": "second compound 0.1 µM, first compound 10 µM", "result": 23.5, "unit": "%"}, {"measurement": "viability, T/C", "setting": "second compound 0.316 µM, first compound 0.0316 µM", "result": 66.8, "unit": "%"}, {"measurement": "viability, T/C", "setting": "second compound 0.316 µM, first compound 0.1 µM", "result": 52.1, "unit": "%"}, {"measurement": "viability, T/C", "setting": "second compound 0.316 µM, first compound 0.316 µM", "result": 40.8, "unit": "%"}, {"measurement": "viability, T/C", "setting": "second compound 0.316 µM, first compound 1 µM", "result": 31.9, "unit": "%"}, {"measurement": "viability, T/C", "setting": "second compound 0.316 µM, first compound 3.16 µM", "result": 25.5, "unit": "%"}, {"measurement": "viability, T/C", "setting": "second compound 0.316 µM, first compound 10 µM", "result": 12.8, "unit": "%"}, {"measurement": "viability, T/C", "setting": "second compound 1 µM, first compound 0.0316 µM", "result": 55.8, "unit": "%"}, {"measurement": "viability, T/C", "setting": "second compound 1 µM, first compound 0.1 µM", "result": 40.9, "unit": "%"}, {"measurement": "viability, T/C", "setting": "second compound 1 µM, first compound 0.316 µM", "result": 33.6, "unit": "%"}, {"measurement": "viability, T/C", "setting": "second compound 1 µM, first compound 1 µM", "result": 25.7, "unit": "%"}, {"measurement": "viability, T/C", "setting": "second compound 1 µM, first compound 3.16 µM", "result": 15.8, "unit": "%"}, {"measurement": "viability, T/C", "setting": "second compound 1 µM, first compound 10 µM", "result": 8.19, "unit": "%"}, {"measurement": "viability, T/C", "setting": "second compound 3.16 µM, first compound 0.0316 µM", "result": 39.6, "unit": "%"}, {"measurement": "viability, T/C", "setting": "second compound 3.16 µM, first compound 0.1 µM", "result": 27.4, "unit": "%"}, {"measurement": "viability, T/C", "setting": "second compound 3.16 µM, first compound 0.316 µM", "result": 23.4, "unit": "%"}, {"measurement": "viability, T/C", "setting": "second compound 3.16 µM, first compound 1 µM", "result": 15.9, "unit": "%"}, {"measurement": "viability, T/C", "setting": "second compound 3.16 µM, first compound 3.16 µM", "result": 12.2, "unit": "%"}, {"measurement": "viability, T/C", "setting": "second compound 3.16 µM, first compound 10 µM", "result": 5.36, "unit": "%"}, {"measurement": "viability, T/C", "setting": "second compound 10 µM, first compound 0.0316 µM", "result": 23.9, "unit": "%"}, {"measurement": "viability, T/C", "setting": "second compound 10 µM, first compound 0.1 µM", "result": 18.9, "unit": "%"}, {"measurement": "viability, T/C", "setting": "second compound 10 µM, first compound 0.316 µM", "result": 10.8, "unit": "%"}, {"measurement": "viability, T/C", "setting": "second compound 10 µM, first compound 1 µM", "result": 7.6, "unit": "%"}, {"measurement": "viability, T/C", "setting": "second compound 10 µM, first compound 3.16 µM", "result": 4.71, "unit": "%"}, {"measurement": "viability, T/C", "setting": "second compound 10 µM, first compound 10 µM", "result": 1.43, "unit": "%"}]}]}
